The source of these data is US7217710B2, “Substituted pyrazolopyrimidines” (SmithKline Beecham Corporation, priority 2001, dated 2007).

This experiment has as its target T1, GST-TIE2 (intracellular domains of human TIE2) (Homo sapiens, UniProt Q02763).
T1 construct: made in house
Put plainly: TIE-2 Enzyme Assay (TIE2-E2), LANCE method. Format: biochemical. To be noted: for IC50: read-out: TIE2 PIC50 TIE2-E2 assay. The source says:
TIE-2 Enzyme Assay (TIE2-E2
The TIE-2 enzyme assay uses the LANCE method (Wallac) and GST-TIE2, baculovirus-expressed recombinant constructs of the intracellular domains of human TIE2 (amino acids 762–1104, GenBank Accession # L06139) tagged by GST). The method measures the ability of the purified enzymes to catalyse the transfer of the γ-phosphate from ATP onto tyrosine residues in a biotinylated synthetic peptide, D1–15 (biotin-C6-LEARLVAYEGWVAGKKKamide). This peptide phosphorylation is detected using the following procedure: for enzyme preactivation, GST-TIE2 is incubated for 2 hours at room temperature with 80 μM ATP, 10 mM MgCl2, 0.1 mg/ml BSA, 0.01% Tween 20 and 1 mM DTT in 100 mM HEPES buffer (pH7.4). 5 nM preactivated GST-TIE2 is incubated for 2 hours at room temperature in 96 well plates with 1 uM D1–15 peptide, 80 uM ATP, 10 mM MgCl2, 0.1 mg/ml BSA, 0.01% Tween 20 and titrated test compound (diluted from a 10 mM stock in DMSO, final DMSO concentration is 2.4%) in 100 mM HEPES (pH7.4). The reaction is stopped by the addition of EDTA (final concentration 45 mM). Streptavidin linked-APC (allophycocyanin, PerkinElmer) and europium-labeled anti-phosphotyrosine antibody (PerkinElmer) are then added at the final concentration of 8 nM and 1 nM, respectively. The APC signal is measured using an Wallac Multilabel 1420 counter. (Wallac Berthold Japan). The percent inhibition of activity is calculated relative to blank control wells. The concentration of test compound that inhibits 50% of activity (IC50) is interpolated using nonlinear regression (Levernberg-Marquardt) and the equation, y=Vmax (1−x/(K+x))+Y2, where “K” is equal to the IC50. The IC50 values are converted to pIC50 values, i.e., −log IC50 in Molar concentration.
For orientation: TR-FRET usually uses a lanthanide donor and a delayed reading to cut background.

T1 sequence (Q02763 762-1104): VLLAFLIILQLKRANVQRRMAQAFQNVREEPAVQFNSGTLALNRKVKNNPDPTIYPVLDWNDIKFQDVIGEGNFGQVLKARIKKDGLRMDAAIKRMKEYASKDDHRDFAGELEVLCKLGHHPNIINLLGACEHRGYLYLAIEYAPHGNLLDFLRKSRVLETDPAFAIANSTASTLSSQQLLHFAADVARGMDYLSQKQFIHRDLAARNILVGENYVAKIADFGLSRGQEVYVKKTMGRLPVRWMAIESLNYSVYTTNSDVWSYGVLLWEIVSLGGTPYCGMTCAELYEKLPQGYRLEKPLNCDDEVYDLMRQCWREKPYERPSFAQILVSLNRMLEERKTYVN

Take “2,3-Dichloro-N-{4-[1-methyl-6-(3-diethylamino -propylamino)-1H-pyrazolo[3,4-d]pyrimidin-3-yl]-phenyl}-benzenesulfonamide [Example 107]”: the “TIE2 PIC50 TIE2-E2 assay” value is “−− (−− = PIC50 less than 5.00)”.

As to `Cn1nc(-c2ccc(NC(=O)Nc3cc(C(F)(F)F)ccc3F)cc2)c2cnc(NCCOC(=O)Nc3cc(C(F)(F)F)ccc3F)nc21` [Example 30, (Fluoro-trifluoromethyl-phenyl)-carbamic acid 2-(3-{4-[3-(fluoro-trifluoromethyl-phenyl)-ureido]-phenyl}-1-methyl-1H-pyrazolo[3,4-d]pyrimidin-6-ylamino)-ethyl ester], the IC50 lay within 1000 to 10000 nM.

For the compound `Cn1nc(-c2ccc(NC(=S)Nc3cccc(C(F)(F)F)c3)cc2)c2cnc(NCCN3CCOCC3)nc21` [Example 36, 1-{4-[1-Methyl-6-(2-morpholin-4-yl-ethylamino)-1H-pyrazolo[3,4-d]pyrimidin-3-yl]-phenyl}-3-(3-trifluoromethyl-phenyl)-thiourea], the IC50 was in the range of 100 to 1000 nM.

As to `CCc1cccc(NC(=O)Nc2ccc(-c3nn(C)c4nc(NCCN5CCOCC5)ncc34)cc2)c1` [Example 38, 1-(3-Ethyl-phenyl)-3-{4-[1-methyl-6-(2-morpholin-4-yl-ethylamino) -1H-pyrazolo[3,4-d]pyrimidin-3-yl]-phenyl}-urea], the IC50 lay in the range of 39.8 to 100 nM.

Consider `CC(=O)c1cccc(NC(=O)Nc2ccc(-c3nn(C)c4nc(NCCN5CCOCC5)ncc34)cc2)c1` [Example 40, 1-(3-Acetyl-phenyl)-3-{4-[1-methyl-6-(2-morpholin-4-yl-ethylamino)-1H-pyrazolo[3,4-d]pyrimidin-3-yl]-phenyl}-urea], for which the IC50 is 1000 to 10000 nM.

`Cc1cc(-c2nn(C)c3nc(NCCN4CCOCC4)ncc23)ccc1NC(=O)Nc1cc(C(F)(F)F)ccc1F` [Example 43, 1-(2-Fluoro-5-trifluoromethyl-phenyl)-3-{methyl-[methyl-(2-morpholin-4-yl-ethylamino)-1H-pyrazolo[3,4-d]pyrimidin-3-yl]-phenyl}-urea]: the “TIE2 PIC50 TIE2-E2 assay” value is “+++ (+++ = PIC50 = 7.00 to less than 7.40)”.

Take `Cc1cc(-c2nn(C)c3nc(NCCN4CCOCC4)ncc23)ccc1NC(=O)Nc1ccc(Cl)c(C(F)(F)F)c1` [Example 44, 1-(Chloro-trifluoromethyl-phenyl)-3-{methyl-[methyl-(2-morpholin-4-yl-ethylamino)-1H-pyrazolo[3,4-d]pyrimidin-3-yl]-phenyl}-urea]: the “TIE2 PIC50 TIE2-E2 assay” value is “++ (++ = PIC50 = 6.00 to less than 7.00)”.

`CCc1cccc(NC(=O)Nc2ccc(-c3nn(C)c4nc(NCCN5CCOCC5)ncc34)cc2C)c1` [Example 45, 1-(3-Ethyl-phenyl)-3-{2-methyl-4-[1-methyl-6-(2-morpholin-4-yl-ethylamino)-1H-pyrazolo[3,4-d]pyrimidin-3-yl]-phenyl}-urea]: the IC50 fell in the range of 100 to 1000 nM.

As to `Cc1cc(-c2nn(C)c3nc(NCCN4CCOCC4)ncc23)ccc1NC(=O)Nc1cc(C(F)(F)F)cc(C(F)(F)F)c1` [Example 47, 1-(Bis-trifluoromethyl-phenyl)-3-{methyl-[methyl-(2-morpholin-4-yl-methylamino)-1H-pyrazolo[3,4-d]pyrimidin-3-yl]-phenyl}-urea], the IC50 was 100 to 1000 nM.

Regarding `Cc1cc(-c2nn(C)c3nc(NCCN4CCOCC4)ncc23)ccc1NC(=O)Nc1cccc(C(F)(F)F)c1` [Example 48, 1-{2-Methyl-4-[methyl-(2-morpholin-4-yl-ethylamino)-1H -pyrazolo[3,4-d]pyrimidin-3-yl]-phenyl}-3-(3-trifluoromethyl-phenyl)-urea], the “TIE2 PIC50 TIE2-E2 assay” value was “++ (++ = PIC50 = 6.00 to less than 7.00)”.

In the case of `CC(=O)c1cccc(NC(=O)Nc2ccc(-c3nn(C)c4nc(NCCN5CCOCC5)ncc34)cc2F)c1` [Example 54, 1-(3-Acetyl-phenyl)-3-{2-fluoro-4-[1-methyl-6-(2-morpholin-4-yl-ethylamino)-1H-pyrazolo[3,4-d]pyrimidin-3-yl]-phenyl}-urea], the IC50 was 100 to 1000 nM.
